In brackets after ≈: the same amount, converted by molar mass.
Columns and labels:
[1] = molecular target: Dihydroorotate dehydrogenase (quinone), mitochondrial (Homo sapiens, UniProt Q02127); assay: Inhibition of C-terminal His6-tagged recombinant human DHODH (29 to 395 residues) N-terminally truncated soluble domain extracted from Escherichia coli phage resistant BL21-DE3 using CoQD/DHA/DCIP as substrates
[2] = tested on: Plasmodium falciparum; assay: Antiparasitic activity against asexual blood stage Plasmodium falciparum 3D7 incubated for 72 hrs by SYBR Green assay; type: functional, organism-based; conditions: 3D7, 72 h
[3] = Kinetic solubility of compound at pH 6.5 measured after 30 mins by nephelometry; type: physicochemical; conditions: buffer; for solubility kinetic at 0.5 h: pH 6.5, read-out: Kinetic_solubility; for Kinetic_solubility: pH 6.5, 0.5 h
[4] = Metabolic stability in human liver microsomes assessed as intrinsic clearance at 0.5 uM incubated for 60 mins in presence of NADPH by tandem quadrupole-Time of Flight MS; type: ADME, Microsome; conditions: 1 h
[5] = molecular target: T1, Dihydroorotate dehydrogenase (quinone), mitochondrial (Plasmodium falciparum (isolate 3D7), UniProt Q08210); assay: Inhibition of N-terminal His6-tagged recombinant Plasmodium falciparum DHODH (158 to 569 residues) N-terminally truncated soluble domain extracted from Escherichia coli phage resistant BL21-DE3 using CoQD/DHA/DCIP as substrates
T1 sequence (Q08210 whole entry): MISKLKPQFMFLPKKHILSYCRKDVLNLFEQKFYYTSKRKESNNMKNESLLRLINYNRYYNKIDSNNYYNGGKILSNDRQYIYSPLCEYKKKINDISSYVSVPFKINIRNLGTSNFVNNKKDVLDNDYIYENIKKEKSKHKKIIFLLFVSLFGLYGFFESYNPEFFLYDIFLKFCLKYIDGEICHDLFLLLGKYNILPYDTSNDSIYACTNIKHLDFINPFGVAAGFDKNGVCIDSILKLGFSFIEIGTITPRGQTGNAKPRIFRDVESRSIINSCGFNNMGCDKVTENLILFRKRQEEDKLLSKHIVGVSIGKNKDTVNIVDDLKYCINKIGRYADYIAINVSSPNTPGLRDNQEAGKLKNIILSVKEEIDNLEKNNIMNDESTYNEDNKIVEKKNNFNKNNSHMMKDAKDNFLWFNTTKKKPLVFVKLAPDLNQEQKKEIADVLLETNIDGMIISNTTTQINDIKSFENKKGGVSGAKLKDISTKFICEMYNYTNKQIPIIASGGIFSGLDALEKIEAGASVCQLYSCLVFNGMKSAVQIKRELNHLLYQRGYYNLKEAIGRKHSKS

Sequence of Dihydroorotate dehydrogenase (quinone), mitochondrial (Homo sapiens, UniProt Q02127) (Q02127 whole entry, the tested form may be a part): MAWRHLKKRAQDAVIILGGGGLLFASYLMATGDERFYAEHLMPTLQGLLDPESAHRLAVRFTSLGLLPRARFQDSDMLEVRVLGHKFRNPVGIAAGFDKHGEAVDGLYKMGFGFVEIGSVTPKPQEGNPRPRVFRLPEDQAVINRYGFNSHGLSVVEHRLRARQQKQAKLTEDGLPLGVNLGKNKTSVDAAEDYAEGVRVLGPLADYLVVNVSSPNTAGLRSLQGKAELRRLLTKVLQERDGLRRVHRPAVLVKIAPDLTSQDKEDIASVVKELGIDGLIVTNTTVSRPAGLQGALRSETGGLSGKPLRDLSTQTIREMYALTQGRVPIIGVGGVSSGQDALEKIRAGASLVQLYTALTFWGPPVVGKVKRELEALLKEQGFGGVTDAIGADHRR

Compound | IC50 [1] [nM] | EC50 [2] [nM] | solubility kinetic at 0.5 h [3] [µM] | intrinsic clearance (CLint) [4] [µL/min/mg] | Kinetic_solubility [3] [µM] | IC50 [5] [nM]
CCn1cc(C)c2c([C@H](O)c3cnc(C(F)(F)F)c(Cl)c3)n(C)nc2c1=O | > 100000 | 11 | 160 (≈ 64.1 µg/mL) | 3.2 |  | 
CC[C@@](N)(c1ccc(C(F)(F)F)c(Cl)c1)c1c2cnn(C3CC3)c(=O)c2nn1C |  | 3 | 20 (≈ 8.52 µg/mL) | < 3 |  | 
Cn1nc2c(=O)n(C3CC3)ccc2c1[C@](C)(O)c1cnc(C(F)(F)F)c(Cl)c1 | > 30000 | 1 | 80 (≈ 33 µg/mL) | 6.8 |  | 
CCn1cc(C2CC2)c2c(CN3CCC(C)(F)CC3)n(C)nc2c1=O | > 30000 | 18 |  | 18 | > 100 | 
CCn1cc(C2CC2)c2c([C@@H](O)c3ccc(C(F)(F)F)nc3)n(C)nc2c1=O |  | 2100 |  |  |  | 
CCn1ccc2c([C@](O)(c3ccc(C(F)(F)F)nc3)C3CC3)n(C)nc2c1=O | > 100000 | 7 | 80 (≈ 31.4 µg/mL) | < 3 |  | 
CCn1cc(C2CC2)c2c(Cc3cnc(C(F)(F)F)c(Cl)c3)n(C)nc2c1=O | 60000 | 35 | 50 (≈ 20.5 µg/mL) | 28 |  | 
CCn1cc(C2CC2)c2c(CN3CCC(F)(F)CC3)n(C)nc2c1=O | > 100000 | 300 | 50 (≈ 17.5 µg/mL) | 20 |  | 
CC[C@](N)(c1cnc(C(F)(F)F)c(Cl)c1)c1c2ccn(C3CC3)c(=O)c2nn1C |  | 2300 |  |  |  | 17000
Cn1nc2c(=O)n(C3CC3)ncc2c1[C@@](O)(c1cnc(C(F)(F)F)c(Cl)c1)C(F)(F)F |  | 700 |  |  |  | 
CCn1cc(C)c2c([C@@H](N)c3ccc(C(F)(F)F)nc3)n(C)nc2c1=O |  | 2600 |  |  |  | 1100
Cc1cc(Nc2ccc(S(F)(F)(F)(F)F)cc2)n2nc(C(C)(F)F)nc2n1 [DSM-265] |  | 7 |  |  |  | 
Cn1nc2c(=O)n(C3CC3)ccc2c1[C@](O)(c1ccc(C(F)(F)F)c(Cl)c1)C(F)(F)F | 4300 |  | 5 (≈ 2.33 µg/mL) | < 3 |  | 
CC[C@@](O)(c1cnc(C(F)(F)F)c(Cl)c1)c1c2ncn(C3CC3)c(=O)c2nn1C |  | 1 |  | 3.7 | > 100 | 
CCn1cc(C2CC2)c2c(CN3CCCC(F)(F)C3)n(C)nc2c1=O |  | 93 | 80 (≈ 28 µg/mL) | 26 |  | 
CCn1ccc2c([C@](C)(O)c3cnc(C(F)(F)F)c(Cl)c3)n(C)nc2c1=O | > 100000 | 1 | 80 (≈ 32.1 µg/mL) | 25 |  | 
CC[C@@](O)(c1cc(F)c(F)c(F)c1)c1c2ccn(C3CC3)c(=O)c2nn1C | 2100 | 1 | 50 (≈ 18.9 µg/mL) | 6 |  | 
CCn1cc(C2CC2)c2c(Cc3cnc(C(F)(F)F)c(C)c3)n(C)nc2c1=O | 67000 | 4 | 50 (≈ 19.5 µg/mL) | 24 |  | 
Cn1nc2c(=O)n(C3CC3)ncc2c1[C@](O)(c1ccc(C(F)(F)F)c(Cl)c1)C1CC1 | > 30000 | 2 |  | < 3 | < 5 | 
Cn1nc2c(=O)n(C3CC3)cnc2c1[C@@](O)(c1cnc(C(F)(F)F)c(Cl)c1)C(F)(F)F |  | 550 |  |  |  | 4500

Compound | IC50 [1] [nM] | EC50 [2] [nM] | solubility kinetic at 0.5 h [3] [µM] | intrinsic clearance (CLint) [4] [µL/min/mg] | Kinetic_solubility [3] [µM] | IC50 [5] [nM]
Cn1nc2c(=O)n(C)ccc2c1Cc1ccc(C(F)(F)F)nc1 |  | 6000 |  |  |  | 4500
CC[C@](N)(c1cnc(C(F)(F)F)c(Cl)c1)c1c2ncn(C3CC3)c(=O)c2nn1C |  | 980 |  |  |  | 4200
Cn1nc2c(=O)n(CCC3CC3)ccc2c1Cc1ccc(C(F)(F)F)nc1 |  | 14000 |  |  |  | > 100000
CCn1cc(C2CC2)c2c([C@H](O)c3ccc(C(F)(F)F)nc3)n(C)nc2c1=O | > 100000 | 8 | 160 (≈ 62.8 µg/mL) | 15 |  | 
CCn1cc(C2CC2)c2c([C@H](O)c3cnc(C(F)(F)F)c(Cl)c3)n(C)nc2c1=O | > 100000 | 5 | 80 (≈ 34.1 µg/mL) | 6 |  | 
CC[C@@](O)(c1cc(F)c(Cl)c(F)c1)c1c2ccn(C3CC3)c(=O)c2nn1C |  | 1 | 50 (≈ 19.7 µg/mL) | 3.2 |  | 
CC[C@@](O)(c1ccc(C(F)(F)F)nc1)c1c2ccn(C3CC3)c(=O)c2nn1C | 5000 | 3 | 40 (≈ 15.7 µg/mL) | < 3 |  | 
Cn1nc2c(=O)n(C3CC3)ccc2c1[C@@](O)(c1cnc(C(F)(F)F)c(Cl)c1)C(F)(F)F |  | 410 |  |  |  | 
Cn1nc2c(=O)n(C3CC3)ncc2c1[C@](O)(c1cnc(C(F)(F)F)c(Cl)c1)C1CC1 | > 30000 | 15 | 20 (≈ 8.8 µg/mL) | 5.4 |  | 
Cn1nc2c(=O)n(C3CC3)ccc2c1[C@](N)(c1cnc(C(F)(F)F)c(Cl)c1)C(F)(F)F | > 30000 | 3 | 40 (≈ 18.6 µg/mL) | < 3 |  | 
Cn1nc2c(=O)n(C3CC3)cnc2c1[C@](O)(c1cnc(C(F)(F)F)c(Cl)c1)C1CC1 | > 30000 | 4 | 80 (≈ 35.2 µg/mL) | < 3 |  | 
Cn1nc2c(=O)n(C3CC3)ccc2c1[C@](O)(c1ccc(C(F)(F)F)nc1)C(F)(F)F | > 30000 | 2 | 50 (≈ 21.6 µg/mL) | < 3 |  | 
CC[C@](O)(c1cnc(C(F)(F)F)c(Cl)c1)c1c2cnn(C3CC3)c(=O)c2nn1C |  | 1700 |  |  |  | 
CCn1cc(C)c2c([C@@H](O)c3ccc(C(F)(F)F)nc3)n(C)nc2c1=O |  | 220 |  |  |  | 280
CCCn1ccc2c(Cc3ccc(C(F)(F)F)nc3)n(C)nc2c1=O |  | 14000 |  |  |  | 
Cn1nc2c(=O)n(C3CC3)cc(Cl)c2c1Cc1ccc(C(F)(F)F)nc1 | 16000 | 20 | 70 (≈ 26.8 µg/mL) | 10 |  | 
CC[C@](O)(c1cnc(C(F)(F)F)c(Cl)c1)c1c2ccn(C3CC3)c(=O)c2nn1C |  | 440 |  |  |  | 14000
Cn1nc2c(=O)n(C3CC3)ccc2c1[C@](O)(c1ccc(F)c(Cl)c1)C(F)(F)F | 8500 | 1 | 20 (≈ 8.32 µg/mL) | < 3 |  | 
CCn1cc(Cl)c2c(Cc3ccc(N4CCN(C)CC4)nc3)n(C)nc2c1=O |  | 2700 |  |  |  | 1500
CCn1cc(C2CC2)c2c(CN3CCC(F)(F)CC3(C)C)n(C)nc2c1=O | 57000 | 35 | 40 (≈ 15.1 µg/mL) | 74 |  | 

From ChEMBL document CHEMBL6087456 (J Med Chem, 2025)
